Data reported in US4843075A, “Benzothiopyrano[4,3-c]pyridazine compounds, methods for preparing said compounds and uses of said compounds” (Yoshitomi Pharmaceutical Industries, Ltd., priority 1986, dated 1989).

Tests used:
[1] = Anti-bicuculline effect (tonic convulsion in mice); assay type: in vivo, male ddY-strain mice; details: Mus musculus, oral, (+)bicuculline 0.6 mg/kg i.v. 1 hour after test compound, tonic convulsion within 5 minutes
Description: The experiment of anti-bicuculline effect was performed according to the method described in Life Science, vol. 21, p. 1779 (1977).
In brief, groups of 7-14 male ddY-strain mice weighing 20-28 g were used. (+)Bicuculline (0.6 mg/kg) was intraveneously administered 1 hour after the oral adminstration of test compound, and the ED50, 50% effective dose, was determined by observing the existence of tonic convulsion within 5 minutes.

benzodiazepine receptor = test: Displacement ability for benzodiazepine receptor (displacement of tritiated diazepam); details: displacement of tritiated diazepam (2 nM), rat cerebral cortex synaptosomal fraction, pH 7.4, 0° C., 20 minutes; read-out: binding for benzodiazepine Ki
Description: The experiment was performed according to the methods described in European Journal of Pharmacology, vol. 51, P. 129 (1978) and Life Science, vol. 20, p. 1201 (1977).
In brief, a crude synaptosomal fraction was isolated from the cerebral cortex of 9 to 10 week-old male Wistar rats and suspended in 50 mM of Tris-hydrochloric acid buffer solution (pH 7.4) containing 120 mM of sodium chloride and 5 mM of potassium chloride.
To the synaptosomal suspension as prepared above were added various concentrations of test compounds and tritiated diazepam (final concentration:2 nM), and the mixture was incubated at 0° C. for 20 minutes. Then the suspension was filtered through Whatman GF/B glass fiber filter. After the filter was washed with the foregoing buffer solution, the radioactivity left on the filter was measured by a liquid scintillation spectrometry.
Specific binding was determined by subtracting binding in the presence of 10^-6 M unlabelled diazepam from total binding.
According to the above experimental method, the affinity of the compounds of the present invention for benzodiazepine receptor is evaluated as an ability to displace tritiated diazepam from the binding site, and is represented as Ki value.

Row | Ki (benzodiazepine receptor) [nM] | Structure (SMILES) | ED50 [1] [mg/kg]
1 | – | O=C1CC2C[S+]([O-])c3ccccc3C2=NN1c1ccc(Cl)cc1 (centres unmarked) [Example 3, 2-(4-chlorophenyl)-2,3,4,4a-tetrahydro-5H-(1)benzothiopyrano[4,3-c]pyridazin-3-one 6-oxide] | 4.1
2 | 45 | O=C1CC2CSc3ccccc3C2=NN1c1ccc(Br)cc1 (centres unmarked) [Example 13, 2-(4-bromophenyl)-2,3,4,4a-tetrahydro-5H-(1)benzothiopyrano[4,3-c]pyridazin-3-one] | –
3 | 13 | COc1ccc(N2N=C3c4ccccc4SCC3CC2=O)cc1 (centres unmarked) [Example 10, 2-(4-methoxyphenyl)-2,3,4,4a-tetrahydro-5H-(1)benzothiopyrano[4,3-c]pyridazin-3-one] | –
4 | – | O=C1CC2C[S+]([O-])c3ccc(F)cc3C2=NN1c1ccc(Cl)cc1 (centres unmarked) [Example 19, 2-(4-chlorophenyl)-9-fluoro-2,3,4,4a-tetrahydro-5H-(1)benzothiopyrano[4,3-c]pyridazin-3-one 6-oxide] | 10.6
5 | – | Cc1ccc2c(c1)C1=NN(c3ccc(Cl)cc3)C(=O)CC1C[S+]2[O-] (centres unmarked) [Example 23, 2-(4-chlorophenyl)-9-methyl-2,3,4,4a-tetrahydro-5H-(1)benzothiopyrano[4,3-c]pyridazin-3-one 6-oxide] | 40.6
6 | 12 | Cc1ccc(N2N=C3c4ccccc4SCC3CC2=O)cc1 (centres unmarked) [Example 9, 2-(4-methylphenyl)-2,3,4,4a-tetrahydro-5H-(1)benzothiopyrano[4,3-c]pyridazin-3-one] | –

Row | Structure (SMILES) | Ki (benzodiazepine receptor) [nM] | ED50 [1] [mg/kg]
7 | O=C1CC2CSc3ccccc3C2=NN1c1ccc(Cl)cc1 (centres unmarked) [Example 1, 2-(4-chlorophenyl)-2,3,4,4a-tetrahydro-5H-(1)benzothiopyrano[4,3-c]pyridazin-3-one] | 40 | 12.4
